Patent publication US20090305225A1, “Inhibition of Creatine Uptake to Promote Weight Loss” (priority 2005, published 2009)

Experiments:
Fos (c-fos protein) = assay: Fos immunohistochemistry of hypothalamic sections 4 hours after icv injection; format: in vivo, rat; conditions: 4 hours after icv 2 mg per rat, especially around the III ventricles
Procedure: In experiments involving immunohistochemistry, animals were injected icv with beta-GPA or with vehicle. Four hours after injection, animals were anesthetized with halothane and perfused through the left ventricle of the heart, initially with oxygenated Krebs buffer and then with ˜350 ml of 4% paraformaldehyde in 0.1M NaCl, pH 7.4 phosphate buffered saline (PBS). Brains were extracted from the skull, hypothalamic blocks dissected (by coronal cuts anterior and posterior to hypothalamic landmarks) and post-fixed in 4% paraformaldehyde solution at 4 degrees C. overnight. The following day, the blocks were transferred to 30% sucrose and incubated overnight at 4 degrees C. After freezing in Optimum Cutting Temperature (OCT) compound (Sakura, Japan), blocks were sectioned coronally at 40 um on a cryostat and sections individually floated in multi-well dishes filled with PBS. Sections were treated for 30 minutes with 0.4% Triton detergent in potassium PBS to aid in antibody penetration. Primary antibodies were added, the plates shaken gently for 1 hour at room temperature, then incubated at 4 degrees C. for 72 hours. Sections were then brought to room temperature while shaking and the primary antibody solution was removed by washing 3 times with PBS buffer. After removal of the last wash, the secondary antibody solution was added and the plates incubated for 2 hours at room temperature in the dark. Removal of the second antibody was achieved by washing three times with PBS buffer prior to mounting on subbed slides. They were allowed to dry, rewetted with PBS buffer and cover-slipped with Citifluor (Ted Pella, Reading, Calif.).
Fos studies were performed using indirect fluorescence visualization. The method utilized rabbit c-Fos-AB5 (1:2,000; Oncogene Research Products, Cambridge, Mass.) with goat anti-rabbit Cy3 (1:500; Jackson Immuno Research Laboratories, West Grove, Pa.) as the secondary antibody. […] Staining observed in experimental tissue was compared to that observed from experiment-matched negative controls. […] Immunoreactive Fos (Fos IR) was quantified by capturing images at 10× using MagnaFire 2.0 Software. These images were imported into the Metamorph 6.1 Software package and density of staining measured using Hue Saturation Intensity. Regions outlining nuclei were hand drawn with an electric pen and the total areas and stained areas measured to yield percentages of total areas with specific Fos-IR. The values for left and right dorsomedial nuclei in each rat were averaged, and the averages used to calculate means. In the case of the III ventricle, the entire image was used for quantification prior to calculating the percentage of the area with Fos-IR.

[1] = test system: creatine transporter (CrT) mRNA; assay: Real-Time PCR of creatine transporter mRNA in hypothalami of beta-GPA-treated rats; format: in vivo, rat; conditions: hypothalamus, normalized to L32 mRNA, not statistically significant, FIG. 4
Procedure: RNA was purified with […] (Promega) at 37 degrees C. for 30 min. The first strand of cDNA was synthesized by adding 1 ug of purified RNA from each sample to 20 ul containing MMLV reverse transcriptase (Invitrogen Life Tech). Creatine transporter (CrT) gene expression was further quantatified by Real-Time PCR using sense primer: 5′GGTAAGGGTGCAA GCCTTTG′ (SEQ ID NO: 1); antisense primer: 5′[…]-3′ (SEQ ID NO:2) and TaqMan probe: 5′[…]-3′ (SEQ ID NO: 3) (MMG-Biotech). The rat ribosomal protein L32 gene was used as a loading control. 1 ul of each cDNA sample derived from the 20 ul reverse transcription reaction and 1 ug RNA template was mixed with 24 ul master mixture (Perkin Elmer) in a 96-well TaqMan plate. The PCR was run in an ABI prism 7700 thermocycler (Applied Biosystems) at 50 degrees C. for 2 min and 95 degrees C. for 10 min, followed by 95 degrees C. for 15 sec and 60 degrees C. for 1 min for 40 cycles. The data were analyzed using software supplied with the ABI prism 7700.

[2] = format: physicochemical
Procedure: All animal handling was approved by and done in accordance with the guidelines and requirements of the University of Vermont Institutional Animal Care Use Committee. Adult male Sprague-Dawley rats (mycoplasma free; 200 g) were purchased from Charles River (Quebec, Canada) and housed in an air-conditioned (23+1 degree C.) room with lights on for 12 hours daily (starting at 6:00 a.m.) in the University of Vermont Animal Facility. Rats were housed singly in regular cages with free access to Purina Rat Chow (RMH 3000) and water for at least five days prior to surgery. Stereotactic surgery was used to implant chronic indwelling stainless steel cannulae into the third ventricle of the brain under fentanyl/droperidol anesthesia. Coordinates for cannula placement were obtained from the Konig Klippel stereotactic surgery atlas; with the nose bar 2.4 mm below the intraaural line and the vertical micrometer gantry tilted 9 degrees towards the animal, the coordinates were 4.9 mm dorsal to the intraaural line, 5 mm anterior to the intraaural line and 1.1 mm lateral to the midline. A minimum of 5 days later, animals were injected icv with beta-GPA (which was dissolved in saline at 50 degrees C. and the pH adjusted to 7.2-7.4 with dilute HCl) or other experimental compounds at the indicated concentrations. […] Food intakes were measured using powdered rat chow with daily weigh-backs as indicated. […]

[3] = Body weight and food intake after icv administration of beta-GPA in rats; format: in vivo, rat
Procedure: All animal handling was approved by and done in accordance with the guidelines and requirements of the University of Vermont Institutional Animal Care Use Committee. Adult male Sprague-Dawley rats (mycoplasma free; 200 g) were purchased from Charles River (Quebec, Canada) and housed in an air-conditioned (23+1 degree C.) room with lights on for 12 hours daily (starting at 6:00 a.m.) in the University of Vermont Animal Facility. Rats were housed singly in regular cages with free access to Purina Rat Chow (RMH 3000) and water for at least five days prior to surgery. Stereotactic surgery was used to implant chronic indwelling stainless steel cannulae into the third ventricle of the brain under fentanyl/droperidol anesthesia. Coordinates for cannula placement were obtained from the Konig Klippel stereotactic surgery atlas; with the nose bar 2.4 mm below the intraaural line and the vertical micrometer gantry tilted 9 degrees towards the animal, the coordinates were 4.9 mm dorsal to the intraaural line, 5 mm anterior to the intraaural line and 1.1 mm lateral to the midline. A minimum of 5 days later, animals were injected icv with beta-GPA (which was dissolved in saline at 50 degrees C. and the pH adjusted to 7.2-7.4 with dilute HCl) or other experimental compounds at the indicated concentrations. Control animals received equal volumes of vehicle. Volumes of icv injections never exceeded 10 ul per animal and were administered over 5-10 seconds. In some experiments, animals received two or more icv injections on the same or different days. Measures of body weight were made daily with a digital balance with a 6 second integration period to minimize the effects of animal movement. For experiments involving measurement of food intake, after stereotactic surgery animals were housed in individual Nalgene metabolic cages and given additional time for acclimation to the cage and feeding system. Food intakes were measured using powdered rat chow with daily weigh-backs as indicated.

[4] = icv 1 mg, 2 mg or 3 mg per animal, FIG. 2
[5] = icv 2 mg/rat, single dose, FIG. 1

With `N=C(N)NCCC(=O)O` [beta-GPA, 3-guanidopropionic acid] the “Fos IR” value (Fos (c-fos protein)) was “increased”, the “relative units of CrT gene expression versus vehicle-treated animals” value [1] was “slight decrease” and the “usability of a five-fold greater icv dose (10 mg)” value [2] was “not usable because of solubility dictates”. For the same compound, the body weight [3, 4] was “decreased in a dose-dependent fashion”, the food intake [3, 4] was “decreased in a dose-dependent fashion” and the “time until body weight and food intake returned to values indistinguishable from vehicle-treated animals” value ([3]; icv 2 mg/rat, single dose) was “four”. The body weight [3, 5] was “modest decreases”, the food intake [3, 5] was “modest decreases” and the “effect of icv dose (body weight and food intake)” value ([3]; icv, 0.04 mg, five-fold lower dose, dose-ranging study) was “without effect”. For the same compound, the “magnitude of body weight and food intake effects after a second identical dosage” value ([3]; second icv dose seven days after the first, FIG. 2) was “enhanced considerably”.
